How the values were obtained:
Assay in all cases: relative viability (nuclei count vs DMSO), 5 days (fraction); higher = more cells survive
[1] = compound: CCN1C(=O)C2=CC(=C(N=C2N(C1=O)C3CC3)N)C(=O)N + O=C(c1cc(Cc2n[nH]c(=O)c3ccccc23)ccc1F)N1CCN(C(=O)C2CC2)CC1 [Olaparib] (partner 8 µM)
In short: (§1)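 For relative viability, nuclei counts in treated wells were divided by those in vehicle wells. Lung cancer cell lines had been pin-tool dosed in 1536-well plates the day after seeding and cultured for 5 days, then fixed and stained in one step (final 0.05% Triton X-100, 1% formaldehyde, 1 ug/ml Hoechst) and imaged at 4×. Doses were one drug alone or a fixed anchor-drug dose plus five library-drug doses (not always all listed) in √10 steps, and values are duplicate-plate medians.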

[2] = compound: CCN1C(=O)C2=CC(=C(N=C2N(C1=O)C3CC3)N)C(=O)N + C[C@@H](Oc1cc(-c2cnn(C3CCNCC3)c2)cnc1N)c1c(Cl)ccc(F)c1Cl [Crizotinib] (partner 1 µM)
In short: as §1

[3] = compound: CCN1C(=O)C2=CC(=C(N=C2N(C1=O)C3CC3)N)C(=O)N + Nc1nc2[nH]cc(CCc3ccc(C(=O)N[C@@H](CCC(=O)O)C(=O)O)cc3)c2c(=O)[nH]1 [Pemetrexed] (partner 0.2 µM)
In short: as §1

[4] = compound: CCN1C(=O)C2=CC(=C(N=C2N(C1=O)C3CC3)N)C(=O)N + CC(=O)Nc1cccc(-n2c(=O)n(C3CC3)c(=O)c3c(Nc4ccc(I)cc4F)n(C)c(=O)c(C)c32)c1 [Trametinib] (partner 0.02 µM)
In short: as §1

[5] = compound: CCN1C(=O)C2=CC(=C(N=C2N(C1=O)C3CC3)N)C(=O)N + C[C@]1(O)C[C@@H](c2nc(-c3ccc4ccc(-c5ccccc5)nc4c3)c3c(N)nccn32)C1 [Linsitinib] (partner 1 µM)
In short: as §1

Cell Line	relative viability ([1]; first compound 0.253 µM)	relative viability ([1]; first compound 0.8 µM)	relative viability ([1]; first compound 2.53 µM)	relative viability ([1]; first compound 8 µM)	relative viability ([2]; first compound 0.253 µM)	relative viability ([2]; first compound 0.8 µM)	relative viability ([2]; first compound 2.53 µM)	relative viability ([2]; first compound 8 µM)	relative viability ([3]; first compound 0.253 µM)	relative viability ([3]; first compound 0.8 µM)	relative viability ([3]; first compound 2.53 µM)	relative viability ([3]; first compound 8 µM)	relative viability ([4]; first compound 0.253 µM)	relative viability ([4]; first compound 0.8 µM)	relative viability ([4]; first compound 2.53 µM)	relative viability ([4]; first compound 8 µM)	relative viability ([5]; first compound 0.253 µM)	relative viability ([5]; first compound 0.8 µM)	relative viability ([5]; first compound 2.53 µM)	relative viability ([5]; first compound 8 µM)
NCI-H1734	0.672	0.695	0.579	0.675	0.716	0.635	0.618	0.769	0.432	0.392	0.405	0.423	0.742	0.593	0.609	0.74	0.837	0.849	0.852	0.884
NCI-H1755	0.908	0.872	0.831	0.843	0.895	0.865	0.875	0.918	0.525	0.412	0.418	0.471	0.771	0.762	0.746	0.716	1.02	0.997	1.01	0.942
NCI-H1792	0.44	0.387	0.292	0.667	1.1	0.902	1.08	0.878	0.733	0.77	0.911	0.909	0.457	0.332	0.346	0.39	0.551	0.624	0.59	0.559
NCI-H1915	0.271	0.284	0.261	0.286	0.895	0.921	0.851	0.911	0.5	0.507	0.493	0.509	0.297	0.294	0.305	0.337	1.09	1.1	1.08	1.06
NCI-H1944	0.4	0.411	0.374	0.437	1.06	1.12	1.01	1.3	0.64	0.589	0.615	0.624	0.451	0.445	0.353	0.427	1.19	1.16	1.02	1.18
NCI-H1975	0.747	0.82	0.734	0.785	0.948	0.94	0.97	0.949	0.294	0.292	0.319	0.288	0.343	0.335	0.335	0.336	0.981	0.955	0.882	1.04
NCI-H1993	1.57	0.75	1.05	1.08	0.998	0.86	0.819	0.882	0.607	0.525	0.607	0.541	0.587	0.576	0.511	0.491	0.732	0.784	0.7	0.777
NCI-H2009	0.688	0.665	0.667	0.71	1.05	1.03	0.99	1.05	1.1	1.09	1	0.966	0.274	0.271	0.262	0.281	1.24	1.15	1.11	1.1

From the supplement of paper PMC10307832
